Reference: paper PMC9779727, “Identification of Novel Artemisinin Hybrids Induce Apoptosis and Ferroptosis in MCF-7 Cells” (International Journal of Molecular Sciences, 2022)

Tested on: MCF-7 cells
Assay: TUNEL staining
Format: cell-based, human
Conditions: MCF-7, varying concentrations
Description: To investigate whether hybrid A8 exerts an antitumor effect on MCF-7 cells by inducing apoptosis, an annexin V-FITC/PI binding assay was performed. MCF-7 cells were treated with vehicle or various concentrations (2.5, 5 and 10 μM) of hybrid A8 for 48 h and were then stained with FITC-annexin V and propidium iodide (PI). The percentages of apoptotic MCF-7 cells were determined by flow cytometry. A8-induced apoptosis in a dose-dependent manner. The percentages of total apoptotic cells (Q1-UR + Q1-LR) were 17.99% (2.5 μM), 35.98% (5 μM) and 48.65% (10 μM). […] In addition, obvious changes in cell morphology were also observed.
The slides were immersed in 4% paraformaldehyde (pH 7.4) for 25 min at room temperature and then washed with PBS 3 times. The cells were immersed in 0.1% Triton X-100 solution prepared with PBS for 10 min (operation on ice) and then washed twice with PBS. Dilute 5 × equilibration buffer with deionized water and 100 μL 1 × equilibration buffer was added to each climbing tablet to cover the sample area to be tested, then incubated at room temperature for 15 min. […] The water-absorbent paper was used to absorb the liquid on the climbing sheet, and the sealing liquid containing anti fluorescence quenching agent was used to seal the film, and then the images were observed and collected under the fluorescence microscope.

CC1CCC2C(C)C(OC(=O)CCC(=O)NCc3nnc(Nc4ccc(F)cc4F)o3)OC3OC4(C)CCC1C32OO4 (stereo not shown) [A8]
number of cells that emitted red fluorescence (apoptotic cells), TUNEL (in words): increased as the administration concentration increased
